Patent US12691070B2, “Cationic lipids and preparation method thereof” (RiboX Therapeutics HK Limited, priority 2023, dated 2026)

Experiments:
[1] = LNP size and polydispersity index (PDI) by dynamic light scattering; format: physicochemical; conditions: LNP with cirRNA (SEQ ID NO: 1); for Size: in nm (unit assumed)
How it was run: (§1)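 Ribogreen fluorescence with and without Triton X-100 gave encapsulation as 100% − (intact/lysed) signal; DLS size, PDI and zeta potential measured on a Zetasizer. Particles: 50:10:38.5:1.5 lipid mix, luciferase circRNA or mRNA, lipid:nucleotide 15 or 6, microfluidic assembly at pH 4.5, PBS-dialyzed.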

Hep G2 cells [2] = assay: In vitro expression of firefly-luciferase, Hep G2; format: cell-based; conditions: cirRNA (SEQ ID NO: 1) LNPs; firefly-luciferase luminescence; Hep G2 cells
How it was run: (§2)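 First, cells were dosed with RNA lipid nanoparticles encoding firefly luciferase (100 ng/mL). Second, at 72 h they were washed and lysed. Third, lysate luciferase activity was read with a luminometer.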

RAW 264.7 cells [3] = assay: In vitro toxicity (CellTiter-Glo cell viability), RAW 264.7; format: cell-based; conditions: cirRNA (SEQ ID NO: 1) LNPs; RAW 264.7 cells;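 further: percent of untreated cells luminescence signal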
How it was run: (§3)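 Viability after a 72 h incubation with 1 μg/mL RNA-LNP formulations was assessed luminometrically using CellTiter-Glo.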

RAW 264.7 cells [4] = assay: In vitro expression of firefly-luciferase, RAW 264.7; format: cell-based; conditions: cirRNA (SEQ ID NO: 1) LNPs; firefly-luciferase luminescence; RAW 264.7 cells
How it was run: as §2

Hep G2 cells [5] = assay: In vitro toxicity (CellTiter-Glo cell viability), Hep G2; format: cell-based; conditions: cirRNA (SEQ ID NO: 1) LNPs; Hep G2 cells;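 further: percent of untreated cells luminescence signal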
How it was run: as §3

[6] = RNA encapsulation efficacy by Quant-IT Ribogreen kit; format: physicochemical; conditions: LNP with cirRNA (SEQ ID NO: 1)
How it was run: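 Dynamic light scattering and zeta potential measurements were run on PBS-dialyzed LNPs, which had been formed by microfluidic mixing at 12 ml/min with final lipid at 1.5 mM to 6 mM. RNA content and percent encapsulation were determined by Ribogreen with and without Triton X-100.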

BALB/C mice = assay: In vivo expression, whole-body luminescence (IVIS); conditions: cirRNA (SEQ ID NO: 1) LNPs, BALB/C mice
Method: 6-8 week old, female BALB/C mice were injected with 0.05 mg*kg-1 of RNA-LNPs encoding for firefly-luciferase by intravenous injection. At 6 hours post injection, animals were intraperitoneally injected with 15 mg/ml of Luciferin substrate and whole-body luminescence was determined by a bioluminescent in vivo imaging system (IVIS).

[7] = LNP zeta potential (Zetasizer); format: physicochemical; conditions: LNP with cirRNA (SEQ ID NO: 1)
How it was run: as §1

| Structure (SMILES) | PDI [1] | Size [1] | Encapsulation Efficiency % [6] [%] | Zeta (mV) [7] [mV] | In vitro Expression HepG2 (Hep G2 cells [2]) | In vitro Viability RAW (RAW 264.7 cells [3]) [%] | In vitro Expression RAW (RAW 264.7 cells [4]) | In vitro Viability HepG2 (Hep G2 cells [5]) [%] | In vivo Expression (Whole Body) (BALB/C mice) |
| --- | --- | --- | --- | --- | --- | --- | --- | --- | --- |
| CCCCCCCCC(CCCCCCCC)OC(=O)CCCCCCCN(CCCCCCCCOC(=O)C(CCCCCC)CCCCCCCC)CCCOC(=O)NCCc1ncc[nH]1 (stereo not drawn) [Lipid 349] | 0.1452 | 75.85 | 97 | 0.02482 | 2.42E+04 | 87 | 7.58E+03 | 90 | 1.01E+07 |
| CCCCCCCCC(CCCCCCCC)OC(=O)CCCCCCCN(CCCCCCCCOC(=O)C(CCCCCC)CCCCCCCC)CCCOC(=O)NCCN1CCC1 (stereo not drawn) [Lipid 353] | 0.2483 | 116.6 | 95 | 4.334 | 4.17E+04 | 40 | 3.38E+03 | 37 | 1.48E+06 |
| CCCCCCCCCC(=O)OCCCCCCCN(CCCCCCCCOC(=O)C(CCCCCC)CCCCCCCC)CCCOC(=O)NCCCN(C)C (stereo not drawn) [Lipid 355] | 0.2834 | 64.55 | 90 | 8.299 | 1.70E+03 | 72 | 9.80E+02 | 123 | 7.94E+05 |
| CCCCCCCCCC(=O)OCCCCCCCN(CCCCCCCCOC(=O)C(CCCCCC)CCCCCCCC)CCCOC(=O)NCCCn1ccnc1 (stereo not drawn) [Lipid 356] | 0.423 | 336.5 | 77 | −0.5834 | 1.96E+03 | 84 | 1.06E+04 | 112 | 5.24E+05 |
| CCCCCCCCCC(=O)OCCCCCCCN(CCCCCCCCOC(=O)C(CCCCCC)CCCCCCCC)CCCOC(=O)NCCN1CCCC1 (stereo not drawn) [Lipid 357] | 0.3136 | 104.3 | 87 | 6.34 | 2.53E+05 | 8 | 7.92E+03 | 120 | 1.85E+06 |
| CCCCCCCCCC(=O)OCCCCCCCN(CCCCCCCCOC(=O)C(CCCCCC)CCCCCCCC)CCOC(=O)NCCCN1CCCCC1 (stereo not drawn) [Lipid 358] | 0.1606 | 81.33 | 87 | 1.109 | 1.88E+05 | 83 | 9.81E+03 | 121 | 2.29E+07 |

Further lines, with some results ahead:

| PDI [1] | Size [1] | Encapsulation Efficiency % [6] [%] | Zeta (mV) [7] [mV] | Structure (SMILES) | In vitro Expression HepG2 (Hep G2 cells [2]) | In vitro Viability RAW (RAW 264.7 cells [3]) [%] | In vitro Expression RAW (RAW 264.7 cells [4]) | In vitro Viability HepG2 (Hep G2 cells [5]) [%] | In vivo Expression (Whole Body) (BALB/C mice) |
| --- | --- | --- | --- | --- | --- | --- | --- | --- | --- |
| 0.337 | 113.9 | 89 | 6.547 | CCCCCCCCCC(=O)OCCCCCCCN(CCCCCCCCOC(=O)C(CCCCCC)CCCCCCCC)CCCOC(=O)NCCN(C)C (stereo not drawn) [Lipid 359] | 9.26E+04 | 8 | 2.38E+03 | 122 | 1.85E+06 |
| 0.2143 | 82.84 | 85 | −2.27 | CCCCCCCCCC(=O)OCCCCCCCN(CCCCCCCCOC(=O)C(CCCCCC)CCCCCCCC)CCCOC(=O)NCc1ncc[nH]1 (stereo not drawn) [Lipid 360] | 1.22E+05 | 86 | 1.63E+05 | 113 | 7.50E+07 |
| 0.438 | 91.91 | 88 | 8.107 | CCCCCCCCCC(=O)OCCCCCCCN(CCCCCCCCOC(=O)C(CCCCCC)CCCCCCCC)CCCOC(=O)NCCCN(CC)CC (stereo not drawn) [Lipid 361] | 1.62E+05 | 4 | 2.97E+03 | 114 | 1.10E+06 |
